Data taken from patent US8486447B2, “Pharmaceutical formulation” (Novartis AG, priority 2003, dated 2013).

Test: HPLC analysis of thermal degradation of drug substance and melt-processed solid dispersions
Format: physicochemical
Settings: for HPLC analysis (thermal degradation): Table 1

CN(Cc1ccccc1)C(=O)[C@H](Cc1ccc2ccccc2c1)N(C)C(=O)[C@@H]1CCCN1c1nc(=O)c2ccccc2[nH]1 [TKA731, (S)-1-(4-Oxo-1,4-dihydro-quinazolin-2-yl)-pyrrolidine-2-carboxylic acid[(S)-1-(benzyl-methyl-carbamoyl)-2-naphthalen-2-yl-ethyl]-methyl-amide]
HPLC analysis (thermal degradation) (drug load 100%, PVPK-30 0%, amorphous TKA731): No degradation | HPLC analysis (thermal degradation) (solid dispersion, drug load 20%, PVPK-30 80%): No degradation | HPLC analysis (thermal degradation) (solid dispersion, drug load 30%, PVPK-30 70%): No degradation | HPLC analysis (thermal degradation) (solid dispersion, drug load 40%, PVPK-30 60%): No degradation | HPLC analysis (degradation) (Table 2, starting from amorphous drug, Tg 94.5 °C): No | HPLC analysis (degradation) (Table 2, starting from crystalline drug, melting point 175 °C): 20% | HPLC analysis (degradation) (Table 3, amorphous drug load 20%, PVPK-30 70%, sorbitol 10%, processing temperature 170 °C): No | HPLC analysis (degradation) (Table 3, amorphous drug load 30%, PVPK-30 65%, sorbitol 5%, processing temperature 170 °C): No | HPLC analysis (degradation) (Table 3, amorphous drug load 40%, PVPK-30 60%, sorbitol 0%, processing temperature 170 °C): No
